Common to all, as to assay type: cell-based
Assay [1] concerns HCT116 KO-MTAP cells. The assay is described as follows: PRMT5 cell SDMA assay, MTAP KO cells. Particulars: Homo sapiens, HCT-116; HCT116 MTAP KO, 48 hours; read-out: Cell SDMA IC50 (μM) (MTAP KO).
The test system of assay [2] is HCT116 WT cells. The assay is described as follows: PRMT5 cell SDMA assay, MTAP WT cells. Particulars: Homo sapiens, HCT-116; HCT116 MTAP WT, 48 hours; read-out: Cell SDMA IC50 (μM) (MTAP WT).
Assay [3] concerns HCT116 KO-MTAP cells. The assay is described as follows: Cell proliferation assay (Alamar Blue), MTAP KO cells. Particulars: Homo sapiens, HCT-116, 120 h; HCT116 MTAP KO, 5 days; read-out: Cell proliferation IC50 (μM) (MTAP KO). On the procedure:
(§1) Cell Proliferation Assays:
(§2) A day 0 plate is created in parallel but not dosed, after plating 4 μl of Alamar Blue (Thermo #DAL1100) and incubate for 3 h at 37 C, 5% CO2.
(§3) The dosed cell plates were then incubated for 5 days at 37° C. before adding Alamar blue and being read in the Envision following same protocol as for first plate.
Background: Alamar Blue is a resazurin reagent that responds to reducing activity.

In assay [4] the test system is HCT116 WT cells. Briefly: Cell proliferation assay (Alamar Blue), MTAP WT cells. The settings on record: Homo sapiens, HCT-116, 120 h, 5 days. The procedure: as §1, §2, §3

Drawing on US11939344B2, “Spirocyclic compounds” (ASTRAZENECA AB, priority 2021, dated 2024), this text covers IC50 for 23 compounds.

`Cc1cc(N)nc2[nH]c(CN3C(=O)c4cc(F)ccc4[C@]34CCN(Cc3cc(F)c(F)cc3F)C4=O)cc12` [Example 28, (S)-2-((6-Amino-4-methyl-1H-pyrrolo[2,3-b]pyridin-2-yl)methyl)-5-fluoro-1′-(2,4,5-trifluorobenzyl)spiro[isoindoline-1,3′-pyrrolidine]-2′,3-dione]: the IC50 in the assay with HCT116 KO-MTAP cells [1] was found to be 0.0028 µM; in the assay on HCT116 WT cells [2] it was 0.071 µM; in the assay with HCT116 KO-MTAP cells [3], 0.13 µM; with HCT116 WT cells [4] it was 1.4 µM.
Regarding `Nc1nc2cc(CN3C(=O)c4cc(F)ccc4[C@]34CCN(CC#CC3CC3)C4=O)[nH]c2cc1F` [Example 20, (S)-2-((5-Amino-6-fluoro-1H-pyrrolo[3,2-b]pyridin-2-yl)methyl)-1′-(3-cyclopropylprop-2-yn-1-yl)-5-fluorospiro[isoindoline-1,3′-pyrrolidine]-2′,3-dione], the IC50 in the assay with HCT116 KO-MTAP cells [1] turned out to be 0.0029 µM; in the assay with HCT116 WT cells [2], 0.16 µM.
The like results for `Nc1nc2cc(CN3C(=O)c4cc(F)ccc4[C@]34CCN(CC3(CF)CC3)C4=O)[nH]c2cc1F` [Example 9, (S)-2-((5-Amino-6-fluoro-1H-pyrrolo[3,2-b]pyridin-2-yl)methyl)-5-fluoro-1′-((1-(fluoromethyl)cyclopropyl)methyl)spiro[isoindoline-1,3′-pyrrolidine]-2′,3-dione] were, in that order, 0.015 µM and 0.53 µM.
Regarding `CC1(CN2CC[C@@]3(C2=O)c2ccc(F)cc2C(=O)N3Cc2cc3nc(N)cc(C#N)c3[nH]2)CC1` [Example 26, (S)-5-Amino-2-((5-fluoro-1′-((1-methylcyclopropyl)methyl)-2′,3-dioxospiro[isoindoline-1,3′-pyrrolidin]-2-yl)methyl)-1H-pyrrolo[3,2-b]pyridine-7-carbonitrile], the IC50 was 0.0031 µM with HCT116 KO-MTAP cells [1], 0.093 µM with HCT116 WT cells [2], 0.29 µM in the assay on HCT116 KO-MTAP cells [3] and 2.3 µM with HCT116 WT cells [4].
For the compound `C[C@@H](N1CC[C@@]2(C1=O)c1ccc(F)cc1C(=O)N2Cc1cc2nc(N)c(F)cc2[nH]1)C1(C)CC1` (relative stereo) [Example 19, (S)-2-((5-Amino-6-fluoro-1H-pyrrolo[3,2-b]pyridin-2-yl)methyl)-5-fluoro-1′-((R*)-1-(1-methylcyclopropyl)ethyl)spiro[isoindoline-1,3′-pyrrolidine]-2′,3-dione], the IC50 with HCT116 KO-MTAP cells [1] is 0.032 µM; in the assay with HCT116 WT cells [2], 0.86 µM.
For `Nc1nc2cc(CN3C(=O)c4cc(F)ccc4[C@]34CCN(Cc3cc(C(F)(F)F)cnn3)C4=O)[nH]c2cc1F` [Example 14, (S)-2-((5-Amino-6-fluoro-1H-pyrrolo[3,2-b]pyridin-2-yl)methyl)-5-fluoro-1′-((5-(trifluoromethyl)pyridazin-3-yl)methyl)spiro[isoindoline-1,3′-pyrrolidine]-2′,3-dione], the IC50 amounted to 0.006 µM with HCT116 KO-MTAP cells [1] and 0.088 µM in the assay on HCT116 WT cells [2].
In the same order, the values of `Nc1nc2cc(CN3C(=O)c4cc(F)ccc4[C@]34CCN(Cc3cccc(-n5nccn5)c3)C4=O)[nH]c2cc1F` [Example 6, (S)-1′-(3-(2H-1,2,3-Triazol-2-yl)benzyl)-2-((5-amino-6-fluoro-1H-pyrrolo[3,2-b]pyridin-2-yl)methyl)-5-fluorospiro[isoindoline-1,3′-pyrrolidine]-2′,3-dione] are 0.0017 µM and 0.054 µM.
The like results for `C[C@H]1C[C@@]2(C(=O)N1C)c1ccc(F)cc1C(=O)N2Cc1cc2nc(N)c(F)cc2[nH]1` (single isomer, unassigned) [Example 29] were, in that order, 0.018 µM and 0.81 µM.
In the case of `Nc1nc2cc(CN3C(=O)c4cnccc4[C@]34CCN(Cc3ccc(F)cc3)C4=O)[nH]c2cc1F` (single isomer, unassigned) [Example 22], the results for the IC50 in the assay on HCT116 KO-MTAP cells [1] and in the assay on HCT116 WT cells [2] were 0.011 µM and 0.51 µM, respectively.
In the same order, the values of `Cn1cc(C#CCN2CC[C@@]3(C2=O)c2ccc(F)cc2C(=O)N3Cc2cc3nc(N)c(F)cc3[nH]2)cn1` [Example 4, (S)-2-((5-Amino-6-fluoro-1H-pyrrolo[3,2-b]pyridin-2-yl)methyl)-5-fluoro-1′-(3-(1-methyl-1H-pyrazol-4-yl)prop-2-yn-1-yl)spiro[isoindoline-1,3′-pyrrolidine]-2′,3-dione] are 0.0094 µM and 0.19 µM.
In the same order, the values of `Nc1nc2cc(CN3C(=O)c4cc(F)ccc4[C@]34CCN(Cc3nc5ccccc5o3)C4=O)[nH]c2cc1F` [Example 16, (S)-2-((5-Amino-6-fluoro-1H-pyrrolo[3,2-b]pyridin-2-yl)methyl)-1′-(benzo[d]oxazol-2-ylmethyl)-5-fluorospiro[isoindoline-1,3′-pyrrolidine]-2′,3-dione] are 0.0051 µM and 0.23 µM.
The like results for `Cc1ncsc1CCN1CC[C@@]2(C1=O)c1ccc(F)cc1C(=O)N2Cc1cc2nc(N)c(F)cc2[nH]1` [Example 18, (S)-2-((5-Amino-6-fluoro-1H-pyrrolo[3,2-b]pyridin-2-yl)methyl)-5-fluoro-1′-(2-(4-methylthiazol-5-yl)ethyl)spiro[isoindoline-1,3′-pyrrolidine]-2′,3-dione] were, in that order, 0.0066 µM and 0.37 µM.
As for `Cn1ncc2cc(CN3CC[C@@]4(C3=O)c3ccc(F)cc3C(=O)N4Cc3cc4nc(N)c(F)cc4[nH]3)ccc21` [Example 15, (S)-2-((5-Amino-6-fluoro-1H-pyrrolo[3,2-b]pyridin-2-yl)methyl)-5-fluoro-1′-((1-methyl-1H-indazol-5-yl)methyl)spiro[isoindoline-1,3′-pyrrolidine]-2′,3-dione], the IC50 was found to be 0.0036 µM in the assay on HCT116 KO-MTAP cells [1] and 0.12 µM with HCT116 WT cells [2].
`Nc1nc2cc(CN3C(=O)c4cc(F)ccc4[C@]34CCN(Cc3ncccc3F)C4=O)[nH]c2cc1F` [Example 12, (S)-2-((5-Amino-6-fluoro-1H-pyrrolo[3,2-b]pyridin-2-yl)methyl)-5-fluoro-1′-((3-fluoropyridin-2-yl)methyl)spiro[isoindoline-1,3′-pyrrolidine]-2′,3-dione]: the results for the IC50 in the assay on HCT116 KO-MTAP cells [1] and with HCT116 WT cells [2] were 0.0088 µM and 0.43 µM, respectively.
In the same order, the values of `Nc1nc2cc(CN3C(=O)c4cc(F)ccc4[C@]34CCN(CCOC(F)F)C4=O)[nH]c2cc1F` [Example 11, (S)-2-((5-Amino-6-fluoro-1H-pyrrolo[3,2-b]pyridin-2-yl)methyl)-1′-(2-(difluoromethoxy)ethyl)-5-fluorospiro[isoindoline-1,3′-pyrrolidine]-2′,3-dione] are 0.02 µM and 0.81 µM.
In the case of `Nc1nc2cc(CN3C(=O)c4cc(F)ccc4[C@]34CCN(CCOc3ccc(F)cc3)C4=O)[nH]c2cc1F` [Example 17, (S)-2-((5-Amino-6-fluoro-1H-pyrrolo[3,2-b]pyridin-2-yl)methyl)-5-fluoro-1′-(2-(4-fluorophenoxy)ethyl)spiro[isoindoline-1,3′-pyrrolidine]-2′,3-dione], the IC50 was 0.0068 µM with HCT116 KO-MTAP cells [1] and 0.42 µM with HCT116 WT cells [2].
Regarding `Nc1nc2cc(CN3C(=O)c4cc(F)ccc4[C@]34CCN(Cc3ccno3)C4=O)[nH]c2cc1F` [Example 13, (S)-2-((5-Amino-6-fluoro-1H-pyrrolo[3,2-b]pyridin-2-yl)methyl)-5-fluoro-1′-(isoxazol-5-ylmethyl)spiro[isoindoline-1,3′-pyrrolidine]-2′,3-dione], the IC50 with HCT116 KO-MTAP cells [1] stood at 0.0084 µM; in the assay with HCT116 WT cells [2] it was 0.34 µM.
`Nc1nc2cc(CN3C(=O)c4c(Cl)cccc4[C@]34CCN(Cc3ccc(F)cc3)C4=O)[nH]c2cc1F` [Example 21, (S)-2-((5-Amino-6-fluoro-1H-pyrrolo[3,2-b]pyridin-2-yl)methyl)-4-chloro-1′-(4-fluorobenzyl)spiro[isoindoline-1,3′-pyrrolidine]-2′,3-dione]: the IC50 amounted to 0.086 µM with HCT116 KO-MTAP cells [1] and 3.2 µM in the assay with HCT116 WT cells [2].
Take `Cc1cc(F)cc2c1[C@]1(CCN(C)C1=O)N(Cc1cc3nc(N)c(F)cc3[nH]1)C2=O` [Example 23, (S)-2-((5-Amino-6-fluoro-1H-pyrrolo[3,2-b]pyridin-2-yl)methyl)-5-fluoro-1′,7-dimethylspiro[isoindoline-1,3′-pyrrolidine]-2′,3-dione]: the results for the IC50 in the assay with HCT116 KO-MTAP cells [1] and in the assay with HCT116 WT cells [2] were 0.16 µM and 12 µM, respectively.
Take `Nc1nc2cc(CN3C(=O)c4cc(F)ccc4[C@]34CCN(Cc3cc(F)ccc3F)C4=O)[nH]c2cc1F` [Example 7, (S)-2-((5-Amino-6-fluoro-1H-pyrrolo[3,2-b]pyridin-2-yl)methyl)-1′-(2,5-difluorobenzyl)-5-fluorospiro[isoindoline-1,3′-pyrrolidine]-2′,3-dione]: the values for the IC50 in the assay on HCT116 KO-MTAP cells [1] and with HCT116 WT cells [2] were 0.0017 µM and 0.036 µM, respectively.
For the compound `N#Cc1ccc(CN2CC[C@@]3(C2=O)c2ccc(F)cc2C(=O)N3Cc2cc3nc(N)c(F)cc3[nH]2)cc1F` [Example 5, (S)-4-((2-((5-Amino-6-fluoro-1H-pyrrolo[3,2-b]pyridin-2-yl)methyl)-5-fluoro-2′,3-dioxospiro[isoindoline-1,3′-pyrrolidin]-1′-yl)methyl)-2-fluorobenzonitrile], the IC50 was 0.0057 µM in the assay on HCT116 KO-MTAP cells [1] and 0.17 µM with HCT116 WT cells [2].
In the same order, the values of `Nc1nc2cc(CN3C(=O)c4ccncc4[C@]34CCN(Cc3ccc(F)cc3)C4=O)[nH]c2cc1F` (single isomer, unassigned) [Example 25] are 0.014 µM and 0.44 µM.
Consider `COc1cc(F)cc2c1[C@]1(CCN(C)C1=O)N(Cc1cc3nc(N)c(F)cc3[nH]1)C2=O` [Example 24, (S)-2-((5-Amino-6-fluoro-1H-pyrrolo[3,2-b]pyridin-2-yl)methyl)-5-fluoro-7-methoxy-1′-methylspiro[isoindoline-1,3′-pyrrolidine]-2′,3-dione], for which the results for the IC50 in the assay on HCT116 KO-MTAP cells [1] and with HCT116 WT cells [2] were 0.032 µM and 1.2 µM, respectively.
